Reference: patent US9625448B2, “Double caged GABA compounds, bis-CNB-GABA” (The Trustees of Princeton University, priority 2014, dated 2017)
“Also recorded” adds a separate entry of the source. Read-outs that look alike come from different tables or passages of the source.

How the values were obtained:
[1] = Absorbance spectrum / extinction coefficient; type: physicochemical; conditions: for extinction coefficient: at 262 nm
Method: Following successful synthesis of bis-CNB-GABA, it was necessary to quantify extinction coefficient and quantum yield. […] Referring to FIG. 32, the first was accomplished simply by taking an absorbance spectrum of the compound. Extinction coefficient was then calculated from Beer's law.

[2] = tested on: glutamate receptors; assay: Spontaneous EPSCs / miniature AMPA currents recorded from cerebellar interneurons; type: cell-based
Method: Bis-CNB-GABA was applied in vitro. Currents were recorded from cerebellar interneurons. […] FIG. 35 (right) illustrates response traces before and after application of bis-CNB-GABA. FIG. 35 (left) illustrates summary of data. FIG. 36 illustrates effects of 1 mM bis-CNB-GABA on spontaneously evoked miniature glutamate and miniature GABA currents in cerebellar interneuron.
FIG. 37 illustrates effects of uncaging. […] Referring to FIG. 37 (bottom), the graph illustrates uncaging at 365 nm with LED in the presence of 3 mM gabazine.
As a third and final test of the synaptic effects of bis-CNB-GABA, we measured its impact on spontaneous glutamatergic postsynaptic currents (EPSCs) recorded from MLIs. Referring to FIGS. 43B and 43E, with this configuration, no change in the amplitude of the EPSCs was observed (FIG. 43B, bottom) even with concentrations of bis-CNB-GABA up to 2 mM (FIG. 43E, p=0.4, Spearman rank order correlation test).

[3] = tested on: cerebellar molecular layer interneurons; assay: Photolysis-evoked GABAergic currents in cerebellar molecular layer interneurons; type: cell-based
Method: The biological properties of our synthetic bis-CNB-GABA were evaluated using whole-cell patch recording from cerebellar molecular layer interneurons.
FIGS. 42A-42E illustrate physiological responses to photolysis of bis-CNB-GABA. FIG. 42A illustrates a cerebellar molecular layer interneuron visualized using Alexa 488 in the patch recording electrode solution. Referring to FIG. 42A, bis-CNB-GABA (0.6 mM) was photolyzed with a 405 nm laser spot in 3 different locations (indicated by 1, 2 and 3). Still referring to FIG. 42A, laser-evoked GABAergic currents are shown on the right panel. Still referring to FIG. 42A, gray traces show individual sweeps and black traces are averages. Still referring to FIG. 42A, the gray sweep at bottom indicates the laser flash (1 ms duration, intensity 5 mW) as recorded using a photodiode. FIG. 42B illustrates bis-CNB-GABA (1.4 mM) was photolyzed with a […] LED at progressively higher flash energies (0.25-1.1 mW, 5-50 ms, 1.25-55 μJ). FIG. 42C illustrates the same experiment as shown in FIG. 42B with Responses to mono-CNB-GABA (50 μM). FIG. 42D illustrates normalized current as a function of relative LED flash energies plotted on a log-log scale. FIG. 42E illustrates laser-evoked whole-cell current recorded in the absence and presence of 3 μM gabazine, a GABA receptor antagonist. Referring to FIG. 42E, a larger flash energy was used in the presence of gabazine.
Referring to FIG. 42A, molecular layer interneurons receive excitatory glutamatergic synapses, as well as inhibitory GABAergic synapses that show a pronounced level of spontaneous activity (gray traces). The effects of bis-CNB-GABA on these synaptic currents were tested.
By contrast, the relationship for mono-O-CNB-GABA was close to linear (log-log slope=1.3±0.1, n=3). For these measurements, evoked currents were normalized to the maximum current observed in the same neuron. […] These power laws are consistent with a process in which each molecule of bis-CNB-GABA must cumulatively undergo two uncaging reactions in order to release an active GABAA agonist.
To test whether bis-CNB-GABA-evoked responses resemble physiological events in their kinetics, we measured the kinetic properties of flash responses. […] This rise time is consistent with the dark reaction time (1.5 ms) for the slower cage, N-mono-CNB-GABA (Wieboldt, R.; Ramesh, D.; Carpenter, B. K; Hess, G. P. Biochemistry, 1994, 33, 1526-1533, which is incorporated herein by reference as if fully set forth). […] These rates approach those of spontaneous events and are among the fastest described for other GABA cages. […]

[4] = Gee et al., 1994; cited from earlier work
[5] = tested on: GABAA receptors; conditions: cited from earlier work

## O=C(CCCNC(C(=O)O)c1ccccc1[N+](=O)[O-])OC(C(=O)O)c1ccccc1[N+](=O)[O-] (centres unmarked) [bis-CNB-GABA, 2-((4-(Carboxy(2-nitrophenyl)methoxy)-4-oxobutyl)amino)-2-(2-nitrophenyl)acetic acid]
[1]
  wavelength of maximal absorbance: 262 nm
[1]; listed as Bis-CNB GABA
  extinction coefficient: 7,550 M^−1 cm^−1
[1]; listed as Bis-CNB-GABA
  extinction coefficient: 7550 M⁻¹ cm⁻¹
[2]; 1 mM (FIG. 36), FIG. 39
  effect on spontaneously-evoked AMPA currents: no significant effect
[2]; 1.223 mM
  effect on amplitude of miniature AMPA currents: no significant effect
[2]; 1.233 mM and 1.0 mM
  effect on miniature AMPA currents: no significant effect
[2]; all concentrations tested, up to 2 mM
  effect on spontaneous EPSC size / amplitude: unaffected; also recorded: no change
[3]; FIGS. 38A-38D
  rise time of GABA-induced currents upon photolysis: approximately 2 ms
[3]; responses comparable in size with spontaneous IPSCs, flash 1.0 ms, n=10
  10-90% rise time of flash responses: 2.2±0.6 ms

## NCCCC(=O)OC(C(=O)O)c1ccccc1[N+](=O)[O-] (centres unmarked) [mono-CNB-GABA]
[4]
  solubility: over 50 mM
[5]; 200 μM
  effect on GABA-evoked currents: reversibly eliminated
[5]; Molnár & Nadler, 2000, read-out: IC50, suppression of GABA-evoked IPSC currents
  IC50: 28 µM
[5]; Table 2, O-CNB-GABA in hippocampal dentate neurons, read-out: IC50 in blocking synaptic GABAA currents
  IC50: 28 µM
[5]
  activity at GABA receptors before photolysis: antagonize GABA receptors; also recorded: antagonist of GABAA receptors
